Counter-ions that a name gives are not always drawn. Activity calls are given as the source filed them.
Tests used:
[1] = molecular target: T1, E3 ubiquitin-protein ligase XIAP (Homo sapiens, UniProt P98170); assay: SAR analysis of Antagonists of IAP-family anti-apoptotic proteins. [Related pubchem assays (depositor defined):AID1018, AID1449, AID1513, AID1514, AID1638]
[2] = molecular target: T1, E3 ubiquitin-protein ligase XIAP; assay: SAR analysis of Antagonists of XIAP-Bir3 domain of IAP-family anti-apoptotic proteins. [Related pubchem assays (depositor defined):AID1018, AID1449, AID1513, AID1514, AID1638]
[3] = molecular target: T2, Tyrosine-protein phosphatase non-receptor type 7 (Homo sapiens, UniProt P35236); assay: inhibition of hematopoietic tyrosine phosphatase HePTP – biochemical, set 2, SAR follow-up (AID 449736); format: functional
T2 sequence (P35236 whole entry): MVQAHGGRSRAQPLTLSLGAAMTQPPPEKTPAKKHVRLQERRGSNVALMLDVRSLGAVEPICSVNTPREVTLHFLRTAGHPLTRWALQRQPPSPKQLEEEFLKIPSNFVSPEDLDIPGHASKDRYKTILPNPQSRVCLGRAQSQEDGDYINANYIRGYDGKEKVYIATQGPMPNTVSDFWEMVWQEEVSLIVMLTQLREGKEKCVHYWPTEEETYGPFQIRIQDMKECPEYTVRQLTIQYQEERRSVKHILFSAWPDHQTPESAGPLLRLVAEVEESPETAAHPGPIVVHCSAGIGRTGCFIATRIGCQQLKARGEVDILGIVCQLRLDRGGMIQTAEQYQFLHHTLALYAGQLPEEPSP

[4] = molecular target: Signal transducer and activator of transcription 1-alpha/beta (Homo sapiens, UniProt P42224); assay: STAT3 blockade with qPCR and toxicity readouts – cell-based, STAT1 panel, cytotoxicity, late-stage follow-up, panel member STAT1 Inhibition (AID 2078)
[5] = molecular target: Signal transducer and activator of transcription 3 (Homo sapiens, UniProt P40763); assay: STAT3 blockade with qPCR and toxicity readouts – cell-based, STAT1 panel, cytotoxicity, late-stage follow-up, panel member STAT3 Inhibition (AID 2078)
[6] = molecular target: Voltage-dependent T-type calcium channel subunit alpha-1H (Homo sapiens, UniProt O95180); assay: human CACNA1H calcium influx blockade – cell-based, synthetic library set 2, HEK293 HH8, Fluo-4, SAR follow-up (AID 493023); format: functional
[7] = molecular target: T3, Sphingosine 1-phosphate receptor 4 (Homo sapiens, UniProt O95977); assay: Late-stage fluorescence dose response cell-based assay to identify agonists of the Sphingosine 1-Phosphate Receptor 4 (S1P4): purchased compounds EC50. [Related pubchem assays (depositor defined):AID1509, AID1523, AID1563, AID1686, AID1701, AID1801]; format: functional
T3 sequence (O95977 whole entry): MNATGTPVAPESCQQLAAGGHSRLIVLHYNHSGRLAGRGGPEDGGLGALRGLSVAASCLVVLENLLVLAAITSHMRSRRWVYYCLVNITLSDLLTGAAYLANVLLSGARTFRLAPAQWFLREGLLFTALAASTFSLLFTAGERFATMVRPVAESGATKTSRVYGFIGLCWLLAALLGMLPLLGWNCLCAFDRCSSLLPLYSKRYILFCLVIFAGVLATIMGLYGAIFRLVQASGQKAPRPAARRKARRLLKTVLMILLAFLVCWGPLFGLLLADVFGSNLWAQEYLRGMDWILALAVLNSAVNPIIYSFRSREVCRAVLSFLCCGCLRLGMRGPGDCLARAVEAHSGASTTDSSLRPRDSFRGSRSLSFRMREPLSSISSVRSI

[8] = molecular target: Troponin, cardiac muscle (Homo sapiens, UniProt P19429+P45379+P63316); assay: Fluorescence-based biochemical high throughput dose response assay for activators of the calcium sensitivity of cardiac Regulated Thin Filaments (RTF). [Related pubchem assays (depositor defined):AID493008, AID493018, AID504382, AID504383]; format: protein-complex assay
[9] = rise of 4N DNA cells, HeLa – IC50, dose response (AID 1117351); format: functional, cell-based
[10] = non-specific 3'UTR reporter inhibition in Clone20-Shn3RL – cell-based, Renilla luciferase, cherry-picked, counter-screen for Shn3 inhibitor project, dose response (AID 624133); format: functional
[11] = rise of 2N DNA cells, HeLa – IC50, dose response (AID 1117349); format: functional, cell-based
[12] = molecular target: T4, Replicative DNA helicase DnaB (Mycobacterium tuberculosis, UniProt P9WMR3); assay: DnaB intein splicing inhibitors, dose response, biochemical, cell-free fluorescence (AID 449749); format: functional
T4 sequence (P9WMR3 whole entry): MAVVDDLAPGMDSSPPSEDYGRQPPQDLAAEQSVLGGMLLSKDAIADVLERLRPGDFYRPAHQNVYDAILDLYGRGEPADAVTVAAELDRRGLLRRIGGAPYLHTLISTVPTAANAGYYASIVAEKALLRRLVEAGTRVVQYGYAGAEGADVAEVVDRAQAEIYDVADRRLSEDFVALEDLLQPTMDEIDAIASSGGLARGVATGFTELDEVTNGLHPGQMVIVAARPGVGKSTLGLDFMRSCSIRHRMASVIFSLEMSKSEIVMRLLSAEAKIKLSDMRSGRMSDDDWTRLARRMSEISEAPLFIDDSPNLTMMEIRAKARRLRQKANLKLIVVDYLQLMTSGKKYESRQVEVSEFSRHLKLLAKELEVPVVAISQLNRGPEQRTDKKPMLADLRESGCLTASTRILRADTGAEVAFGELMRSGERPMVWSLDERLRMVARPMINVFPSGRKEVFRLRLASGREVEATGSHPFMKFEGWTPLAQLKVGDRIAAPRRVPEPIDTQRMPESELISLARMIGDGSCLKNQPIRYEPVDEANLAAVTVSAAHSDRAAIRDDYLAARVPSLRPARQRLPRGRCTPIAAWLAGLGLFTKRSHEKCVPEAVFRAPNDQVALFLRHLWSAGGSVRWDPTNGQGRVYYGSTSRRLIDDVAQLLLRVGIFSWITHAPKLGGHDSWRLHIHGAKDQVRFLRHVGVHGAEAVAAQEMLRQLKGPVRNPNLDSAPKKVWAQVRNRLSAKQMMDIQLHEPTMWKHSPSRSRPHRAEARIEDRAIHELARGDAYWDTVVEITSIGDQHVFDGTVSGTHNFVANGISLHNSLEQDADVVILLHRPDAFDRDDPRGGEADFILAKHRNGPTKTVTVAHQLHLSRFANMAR

[13] = reduction of Shn3 3'UTR-driven luciferase in osteoblasts – cell-based, Clone20 osteoblasts, firefly luciferase, cherry-picked, dose response (AID 624132); format: functional;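 also: firefly luciferase luminescence from reporter carrying the Shn3 3'UTR in osteoblasts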
[14] = molecular target: Protein-arginine deiminase type-4 (Homo sapiens, UniProt Q9UM07); assay: IC50 against protein arginine deiminase 4 – biochemical, fluorescence readout, dose response (AID 492970)
[15] = molecular target: T5, Caspase-6 (Homo sapiens, UniProt P55212); assay: inhibition of CASP6 peptide cleavage – biochemical, VEID-R110 fluorescence, cherry-pick, dose response (AID 720632)
T5 sequence (P55212 whole entry): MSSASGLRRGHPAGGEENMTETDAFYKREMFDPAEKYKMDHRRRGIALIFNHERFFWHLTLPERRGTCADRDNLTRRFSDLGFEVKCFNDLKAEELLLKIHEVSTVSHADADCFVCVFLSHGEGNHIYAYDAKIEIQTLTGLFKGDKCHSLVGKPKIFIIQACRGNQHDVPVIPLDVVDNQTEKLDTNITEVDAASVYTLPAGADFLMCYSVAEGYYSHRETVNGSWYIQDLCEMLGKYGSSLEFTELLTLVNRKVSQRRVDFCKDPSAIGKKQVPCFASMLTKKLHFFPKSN

[16] = loss of viability in HepG2 cells – cell-based, CellTiter-Glo, cherry-picked, cytotoxicity control for Shn3 inhibitor project, dose response (AID 624134); format: functional
[17] = molecular target: T6, Protein RecA (Mycobacterium tuberculosis, UniProt P9WHJ3); assay: Fluorescence Cell-Free Homogeneous Dose Retest to Identify Inhibitors of RecA-Intein Splicing Activity. [Related pubchem assays (depositor defined):AID2097, AID2223, AID489010, AID492950]; format: functional
T6 sequence (P9WHJ3 whole entry): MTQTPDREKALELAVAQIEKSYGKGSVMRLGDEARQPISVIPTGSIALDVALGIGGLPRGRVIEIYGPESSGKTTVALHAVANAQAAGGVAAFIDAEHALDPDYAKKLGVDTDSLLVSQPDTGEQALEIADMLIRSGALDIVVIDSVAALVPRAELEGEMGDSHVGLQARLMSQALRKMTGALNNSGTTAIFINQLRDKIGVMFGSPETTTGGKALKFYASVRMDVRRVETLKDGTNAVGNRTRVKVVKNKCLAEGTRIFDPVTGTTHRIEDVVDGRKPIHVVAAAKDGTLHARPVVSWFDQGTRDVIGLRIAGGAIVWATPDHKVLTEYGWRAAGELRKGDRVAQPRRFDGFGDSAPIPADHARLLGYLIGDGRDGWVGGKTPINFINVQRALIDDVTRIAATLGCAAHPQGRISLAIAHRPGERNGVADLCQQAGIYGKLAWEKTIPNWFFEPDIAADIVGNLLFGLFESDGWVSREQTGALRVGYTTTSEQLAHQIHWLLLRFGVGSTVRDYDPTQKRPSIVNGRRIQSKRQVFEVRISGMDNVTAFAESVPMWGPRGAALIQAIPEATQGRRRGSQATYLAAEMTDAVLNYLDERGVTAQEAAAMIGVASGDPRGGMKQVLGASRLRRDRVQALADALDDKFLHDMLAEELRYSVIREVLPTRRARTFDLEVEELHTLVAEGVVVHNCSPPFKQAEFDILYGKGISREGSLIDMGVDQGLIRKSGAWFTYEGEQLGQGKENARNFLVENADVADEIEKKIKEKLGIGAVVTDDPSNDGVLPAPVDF

CN[C@@H](C)C(=O)NC1CCCN(CC(=O)NC2CCc3ccccc3C2)C1=O (some centres not stated)
IC50 [1]: > 100 µM (inactive)
IC50 [2]: > 100 µM (inactive)

Cc1ccc(-n2c(N)c(C(=O)N3CCN(c4ccccc4F)CC3)sc2=S)cc1
IC50 [3]: > 100 µM (inactive)

c1ccc(CC2CCN(c3ncnc4sc5c(c34)CCC5)CC2)cc1
IC50 [4]: > 55.7 µM (inactive)
IC50 [5]: 20 µM (inactive)

CC(C)(C)CCN1CCC[C@H](NC(=O)c2ccc(Cl)cc2Cl)C1
EC50 [6]: 10 µM (active)

Cc1ccc(Oc2ncc(Cl)cc2Cl)c([N+](=O)[O-])n1
EC50 [7]: > 50 µM (inactive)

COc1ccc(/C=N/NC(=O)c2cccnc2)cc1CN1CCOCC1
EC50 [8]: > 71.5 µM (inactive)

COc1ccc(Cc2nccc3cc(OC)c(OC)cc23)cc1OC [PAPAVERINE HYDROCHLORIDE]
IC50 [9]: > 10 µM (inactive)
AC50 [10]: 20.8 µM (active)
IC50 [11]: > 10 µM (inactive)
AC50 [12]: 5.66 µM (active)
AC50 [13]: 2.48 µM (active)
IC50 [14]: 39 µM (inactive)
AC50 [15]: 22 µM (active)
AC50 [16]: 8.06 µM (active)
EC50 [17]: 3.01 µM (active)
